From patent publication US20250026721A1, “COMPOUNDS AND METHODS FOR MODULATING RAS-PI3K” (Vividion Therapeutics, Inc., priority 2023, published 2025)

Legend:
[1] = target: T1, PIK3CA (Homo sapiens, UniProt P42336); assay: In vitro ELISA target engagement assay for PIK3CA in Jurkat cellular lysate (competition with PIK3CA Biotin Probe); assay type: binding; conditions: 1 hour at rt, then 500 nM PIK3CA Biotin Probe, read-out: Elisa Target Engagement Assay (TE50)
T1 construct: endogenous in cells; host or cells: Jurkat cell lysate
T1 sequence (P42336 whole entry): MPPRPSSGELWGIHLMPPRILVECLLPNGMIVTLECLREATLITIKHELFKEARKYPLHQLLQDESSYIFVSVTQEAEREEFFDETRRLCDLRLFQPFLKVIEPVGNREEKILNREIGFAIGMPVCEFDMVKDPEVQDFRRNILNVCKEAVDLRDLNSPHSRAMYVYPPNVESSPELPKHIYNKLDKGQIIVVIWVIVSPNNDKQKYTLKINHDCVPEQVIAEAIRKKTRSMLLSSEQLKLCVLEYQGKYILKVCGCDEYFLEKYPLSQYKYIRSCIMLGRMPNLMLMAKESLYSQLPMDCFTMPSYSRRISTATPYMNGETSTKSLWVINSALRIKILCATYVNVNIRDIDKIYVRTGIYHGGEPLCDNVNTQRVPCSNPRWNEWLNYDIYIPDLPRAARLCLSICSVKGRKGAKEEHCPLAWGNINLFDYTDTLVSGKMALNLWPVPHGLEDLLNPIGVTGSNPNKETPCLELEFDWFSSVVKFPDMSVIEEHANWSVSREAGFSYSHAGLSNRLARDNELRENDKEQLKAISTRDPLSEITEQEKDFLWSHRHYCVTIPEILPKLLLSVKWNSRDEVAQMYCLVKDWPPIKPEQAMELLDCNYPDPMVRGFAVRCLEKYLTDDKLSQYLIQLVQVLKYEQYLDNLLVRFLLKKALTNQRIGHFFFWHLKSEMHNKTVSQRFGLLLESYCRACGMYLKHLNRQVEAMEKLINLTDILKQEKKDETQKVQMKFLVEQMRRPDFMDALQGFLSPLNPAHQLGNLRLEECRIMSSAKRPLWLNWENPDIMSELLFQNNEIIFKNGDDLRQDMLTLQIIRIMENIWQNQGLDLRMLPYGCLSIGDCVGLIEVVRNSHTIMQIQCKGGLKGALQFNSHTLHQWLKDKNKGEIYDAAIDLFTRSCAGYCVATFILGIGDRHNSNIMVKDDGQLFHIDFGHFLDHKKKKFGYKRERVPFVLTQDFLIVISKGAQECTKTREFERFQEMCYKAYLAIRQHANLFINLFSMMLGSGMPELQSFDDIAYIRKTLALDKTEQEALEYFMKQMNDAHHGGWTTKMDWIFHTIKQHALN
T1 sequence (P27986 whole entry partner): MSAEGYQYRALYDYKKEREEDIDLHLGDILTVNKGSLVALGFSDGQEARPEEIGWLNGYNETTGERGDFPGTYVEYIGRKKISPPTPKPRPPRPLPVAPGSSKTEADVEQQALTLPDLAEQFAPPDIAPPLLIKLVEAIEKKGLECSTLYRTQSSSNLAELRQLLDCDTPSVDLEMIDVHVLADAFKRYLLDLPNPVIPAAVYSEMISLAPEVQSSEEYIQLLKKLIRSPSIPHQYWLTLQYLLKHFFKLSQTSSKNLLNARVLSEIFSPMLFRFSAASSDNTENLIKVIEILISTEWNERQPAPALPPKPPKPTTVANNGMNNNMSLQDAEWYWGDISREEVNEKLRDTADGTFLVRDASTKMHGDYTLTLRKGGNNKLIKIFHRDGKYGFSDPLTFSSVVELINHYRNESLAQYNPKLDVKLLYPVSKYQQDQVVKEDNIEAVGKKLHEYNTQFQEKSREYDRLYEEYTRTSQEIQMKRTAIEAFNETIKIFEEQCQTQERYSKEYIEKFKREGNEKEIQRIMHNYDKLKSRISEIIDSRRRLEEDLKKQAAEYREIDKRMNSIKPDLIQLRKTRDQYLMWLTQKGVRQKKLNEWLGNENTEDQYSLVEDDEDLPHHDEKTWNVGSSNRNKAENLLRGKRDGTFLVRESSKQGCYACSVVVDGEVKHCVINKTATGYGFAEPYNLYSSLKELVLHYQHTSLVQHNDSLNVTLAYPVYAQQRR
How it was run: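 Jurkat lysate from sonicated frozen cells was preincubated 1 h at rt with serially diluted compound up to 200 μM, then labelled 1 h at rt with PIK3CA biotin probe at 500 nM final. Probe-bound PIK3CA was captured on antibody-coated plates and detected with Neutravidin-HRP luminescence; TE50 derived from the dose response.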

[2] = target: T2, PIK3CA_C242 (Homo sapiens, UniProt P42336); assay: Proteomic TE50 (IA-DTB / TMT mass spectrometry) in Jurkat cell lysate; assay type: binding; conditions: 1 hour at rt, 7-point dose response
T2 construct: endogenous in cells; host or cells: Jurkat cell lysate
T2 sequence (P42336 whole entry): as the sequence (P42336 whole entry) above
T2 sequence (P27986 whole entry partner): as the sequence (P27986 whole entry partner) above
How it was run: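 Jurkat lysate (500 μg) treated with compound (7-point, 1:5 dilutions) for 1 h at rt, then labelled with 200 μM IA-DTB for 1 h. After digestion and streptavidin enrichment, the C242 peptide was quantified by targeted MS3 TMT. TE50 was derived from reporter-ion S/N dose-response curves.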

[3] = test system: pAKT(S473) in FaDu cell line; assay: In vitro Phospho-AKT(S473) HTRF analysis in FaDu cells; assay type: cell-based; conditions: Homo sapiens, 0.5 h; for IC50: FaDu cells, 30 minutes at 37° C.; for Emax: FaDu, read-out: FaDu pAKT Imax % control
How it was run: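 FaDu or H358 cells were plated overnight in medium with 1% FBS, then exposed to a compound dose response for 30 minutes at 37° C. Phospho-AKT(S473) levels were measured by HTRF.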

Row | Structure (SMILES) | IC50 [1] [nM] | IC50 [2] [nM] | IC50 [3] [nM] | Emax [3] [%]
1 | C[C@H](/C=C\S(C)(=O)=O)NC(=O)C1(F)CCN(S(=O)(=O)c2ccc(C#N)cc2-c2ccccc2Cl)CC1 [Compound 35, (R,Z)-1-((2′-chloro-5-cyano-[1,1′-biphenyl]-2-yl)sulfonyl)-4-fluoro-N-(4-(methylsulfonyl)but-3-en-2-yl)piperidine-4-carboxamide] | 165 | 140 | 330 | 103
2 | COc1cc(-c2ccccc2Cl)c(S(=O)(=O)N2CCC(F)(C(=O)N[C@@H](C)/C=C\S(C)(=O)=O)CC2)cn1 [Compound 187, (S,Z)-1-((4-(2-chlorophenyl)-6-methoxypyridin-3-yl)sulfonyl)-4-fluoro-N-(4-(methylsulfonyl)but-3-en-2-yl)piperidine-4-carboxamide] | – | 68.1 | 152 | 70.1
3 | C[C@H](/C=C\S(C)(=O)=O)NC(=O)C1(F)CCN(S(=O)(=O)c2cnc(C(F)(F)F)cc2-c2ccccc2Cl)CC1 [Compound 207, (R,Z)-1-((4-(2-chlorophenyl)-6-(trifluoromethyl)pyridin-3-yl)sulfonyl)-4-fluoro-N-(4-(methylsulfonyl)but-3-en-2-yl)piperidine-4-carboxamide] | 184 | 150 | 803 | 75.2
4 | O=C(/C=C/CNC(=O)C1(F)CCN(S(=O)(=O)c2ccc(Br)cc2-c2ccccc2Cl)CC1)N1CC(F)(F)C1 [Compound 282, (E)-1-((5-bromo-2′-chloro-[1,1′-biphenyl]-2-yl)sulfonyl)-N-(4-(3,3-difluoroazetidin-1-yl)-4-oxobut-2-en-1-yl)-4-fluoropiperidine-4-carboxamide] | 140 | – | 367 | –
5 | O=C(/C=C\CNC(=O)C1(F)CCN(S(=O)(=O)c2ccc(C(F)(F)F)cc2-c2ccccc2Cl)CC1)N1CC(F)(F)C1 [Compound 284, (Z)-1-((2′-chloro-5-(trifluoromethyl)-[1,1′-biphenyl]-2-yl)sulfonyl)-N-(4-(3,3-difluoroazetidin-1-yl)-4-oxobut-2-en-1-yl)-4-fluoropiperidine-4-carboxamide] | 61 | – | 67.4 | –
6 | O=C(/C=C\CNC(=O)C1(F)CCN(S(=O)(=O)c2ccc(Br)cc2-c2ccccc2Cl)CC1)N1CC(F)(F)C1 [Compound 285, (Z)-1-((5-bromo-2′-chloro-[1,1′-biphenyl]-2-yl)sulfonyl)-N-(4-(3,3-difluoroazetidin-1-yl)-4-oxobut-2-en-1-yl)-4-fluoropiperidine-4-carboxamide] | 54.1 | – | 124 | –
7 | COc1ccc(C(=O)N2CCC[C@](F)(C(=O)N[C@@H]3C=CS(=O)(=O)C3)CC2)c(-c2ccccc2Cl)c1 [Compound 294, (R)-1-(2′-chloro-5-methoxy-[1,1′-biphenyl]-2-carbonyl)-N-((R)-1,1-dioxido-2,3-dihydrothiophen-3-yl)-4-fluoroazepane-4-carboxamide] | 120 | – | 2120 | –
8 | CCOc1ccc(S(=O)(=O)N2CC[C@@](F)(C(=O)N[C@H](C)/C=C/C(=O)N3CC(F)(F)C3)C[C@H]2C)c(-c2ccccc2Cl)c1 [Compound 298, (2R,4S)-1-((2′-chloro-5-ethoxy-[1,1′-biphenyl]-2-yl)sulfonyl)-N-((R,E)-5-(3,3-difluoroazetidin-1-yl)-5-oxopent-3-en-2-yl)-4-fluoro-2-methylpiperidine-4-carboxamide] | 720 | – | 322 | 102
9 | [2H]C([2H])([2H])Oc1ccc(S(=O)(=O)N2CC[C@@](F)(C(=O)N[C@H](C)/C=C\S(C)(=O)=O)C[C@H]2C)c(-c2ccccc2Cl)c1 [Compound 301, (2R,4S)-1-((2′-chloro-5-(methoxy-d3)-[1,1′-biphenyl]-2-yl)sulfonyl)-4-fluoro-2-methyl-N-((R,Z)-4-(methylsulfonyl)but-3-en-2-yl)piperidine-4-carboxamide] | 77 | – | 117 | 99.8
10 | COc1ccc(S(=O)(=O)N2CCC[C@](F)(C(=O)N[C@H](C)/C=C\S(C)(=O)=O)CC2)c(-c2ccccc2Cl)c1 [Compound 312, (R)-1-((2′-chloro-5-methoxy-[1,1′-biphenyl]-2-yl)sulfonyl)-4-fluoro-N-((R,Z)-4-(methylsulfonyl)but-3-en-2-yl)azepane-4-carboxamide] | 80 | – | 140 | –

The remaining molecules from weak to strong by IC50 [3], led by results:

Row | IC50 [1] [nM] | IC50 [2] [nM] | IC50 [3] [nM] | Structure (SMILES) | Emax [3] [%]
11 | 310 | – | 418 | [2H]C([2H])([2H])Oc1ccc(S(=O)(=O)N2CC[C@@](F)(C(=O)N[C@H](C)/C=C/C(=O)N3CC(F)(F)C3)C[C@H]2C)c(-c2ccccc2Cl)c1 [Compound 300, (2R,4S)-1-((2′-chloro-5-(methoxy-d3)-[1,1′-biphenyl]-2-yl)sulfonyl)-N-((R,E)-5-(3,3-difluoroazetidin-1-yl)-5-oxopent-3-en-2-yl)-4-fluoro-2-methylpiperidine-4-carboxamide] | 94.2
12 | 158 | 133 | 409 | C[C@H](/C=C\S(C)(=O)=O)NC(=O)C1(F)CCN(S(=O)(=O)c2ccc(C(F)(F)F)cc2-c2ccccc2Cl)CC1 [Compound 33, (R,Z)-1-((2′-chloro-5-(trifluoromethyl)-[1,1′-biphenyl]-2-yl)sulfonyl)-4-fluoro-N-(4-(methylsulfonyl)but-3-en-2-yl)piperidine-4-carboxamide] | 86.2
13 | 177 | 150 | 348 | C[C@H](/C=C/C(=O)N1CC(F)(F)C1)NC(=O)C1(F)CCN(S(=O)(=O)c2ccc(C(F)(F)F)cc2-c2ccccc2Cl)CC1 [Compound 134, 1-[2-(2-chlorophenyl)-4-(trifluoromethyl)phenyl]sulfonyl-4-fluoro-N—[(E,1R)-4-(3,3-difluoroazetidin-1-yl)-1-methyl-4-oxo-but-2-enyl]piperidine-4-carboxamide] | 96.3
14 | 226 | 200 | 284 | COc1ccc(S(=O)(=O)N2CC[C@@](F)(C(=O)N[C@H](C)/C=C/C(=O)N3CC(F)(F)C3)C[C@H]2C)c(-c2ccccc2Cl)c1 [Compound 151, (2R,4S)-1-((2′-chloro-5-methoxy-[1,1′-biphenyl]-2-yl)sulfonyl)-N-((R,E)-5-(3,3-difluoroazetidin-1-yl)-5-oxopent-3-en-2-yl)-4-fluoro-2-methylpiperidine-4-carboxamide] | 100
15 | 557 | – | 243 | C[C@H](/C=C\S(C)(=O)=O)NC(=O)[C@@]1(F)CCCN(C(=O)[C@H]2CN(C3CC3)C[C@H]2c2ccccc2Cl)CC1 [Compound 303, (R)-1-((3R,4R)-4-(2-chlorophenyl)-1-cyclopropylpyrrolidine-3-carbonyl)-4-fluoro-N-((R,Z)-4-(methylsulfonyl)but-3-en-2-yl)azepane-4-carboxamide] | 102
16 | 210 | – | 146 | CCOc1ccc(S(=O)(=O)N2CC[C@@](F)(C(=O)N[C@H](C)/C=C\S(C)(=O)=O)C[C@H]2C)c(-c2ccccc2Cl)c1 [Compound 299, (2R,4S)-1-((2′-chloro-5-ethoxy-[1,1′-biphenyl]-2-yl)sulfonyl)-4-fluoro-2-methyl-N-((R,Z)-4-(methylsulfonyl)but-3-en-2-yl)piperidine-4-carboxamide] | 99.6
17 | 75 | 50 | 82.4 | COc1ccc(S(=O)(=O)N2CC[C@@](F)(C(=O)N[C@H](C)/C=C\S(C)(=O)=O)C[C@H]2C)c(-c2ccccc2Cl)c1 [Compound 141, (2R,4S)-1-[2-(2-chlorophenyl)-4-methoxy-phenyl]sulfonyl-4-fluoro-2-methyl-N—[(Z,1R)-1-methyl-3-methylsulfonyl-allyl]piperidine-4-carboxamide] | 102
18 | 85 | – | 77.1 | C[C@H](/C=C\S(C)(=O)=O)NC(=O)[C@@]1(F)CCCN(S(=O)(=O)c2ccc(C(F)(F)F)cc2-c2ccccc2Cl)CC1 [Compound 310, (R)-1-((2′-chloro-5-(trifluoromethyl)-[1,1′-biphenyl]-2-yl)sulfonyl)-4-fluoro-N—((R,Z)-4-(methylsulfonyl)but-3-en-2-yl)azepane-4-carboxamide] | –
